# Patent US10597388B2, “Pyridazinone herbicides” (FMC CORPORATION, priority 2014, dated 2020)
# Legend:
# Assay in all cases: Test D controlled growth environment herbicide test, pre- and postemergence
# Format in all cases: in vivo
# kochia (Kochia scoparia) = tested on: kochia (Kochia scoparia)
# Text: (§1) Seeds of plant species selected from bluegrass (annual bluegrass, Poa annua), blackgrass (Alopecurus myosuroides), Canada thistle (Cirsium arvense), canarygrass (Phalaris minor), chickweed (common chickweed, Stellaria media), geranium, cutleaf (cutleaf geranium, Geranium dissectum), galium (catchweed bedstraw, Galium aparine), bromegrass, downy (downy bromegrass, Bromus tectorum), field poppy (Papaver rhoeas), field violet (Viola arvensis), foxtail, green (green foxtail, Setaria viridis), deadnettle (henbit deadnettle, Lamium amplexicaule), ryegrass, Italian (Italian ryegrass, Lolium multiflorum), kochia (Kochia scoparia), lambsquarters (Chenopodium album), oilseed rape (Brassica napus), pigweed (Amaranthus retroflexus), chamomile (scentless chamomile, Matricaria inodora), Russian thistle (Salsola kali), speedwell (bird's-eye speedwell, Veronica persica), barley, spring (spring barley, Hordeum vulgare), wheat, spring (spring wheat, Triticum aestivum), buckwheat, wild (wild buckwheat, Polygonum convolvulus), mustard, wild (wild mustard, Sinapis arvensis), oat, wild (wild oat, Avena fatua), radish, wild (wild radish, Raphanus raphanistrum), windgrass (Apera spica-venti), barley, winter (winter barley, Hordeum vulgare), and wheat, winter (winter wheat, Triticum aestivum) were planted into a silt loam soil and treated preemergence with test chemicals formulated in a non-phytotoxic solvent mixture which included a surfactant.
# (§2) At the same time, these species were planted in pots containing Redi-Earth® planting medium (Scotts Company, 14111 Scottslawn Road, Marysville, Ohio 43041) comprising spaghnum peat moss, vermiculite, wetting agent and starter nutrients and treated with postemergence applications of the test chemicals formulated in the same manner. Plants ranged in height from 2 to 18 cm (1- to 4-leaf stage). Treated plants and controls were maintained in a controlled growth environment for 14 to 21 d after which time all species were compared to controls and visually evaluated. Plant response ratings, summarized in Table D, are based on a scale of 0 to 100 where 0 is no effect and 100 is complete control. A dash (-) response means no test result.
# [1] = tested on: wheat, winter (winter wheat, Triticum aestivum)
# Text: as §1, §2
# [2] = tested on: barley, winter (winter barley, Hordeum vulgare)
# Text: as §1, §2
# [3] = tested on: lambsquarters (Chenopodium album)
# Text: as §1, §2
# [4] = tested on: chickweed (common chickweed, Stellaria media)
# Text: as §1, §2
# [5] = tested on: mustard, wild (wild mustard, Sinapis arvensis)
# Text: as §1, §2
# [6] = tested on: field poppy (Papaver rhoeas)
# Text: as §1, §2
# [7] = tested on: deadnettle (henbit deadnettle, Lamium amplexicaule)
# Text: as §1, §2
# [8] = tested on: galium (catchweed bedstraw, Galium aparine)
# Text: as §1, §2
# [9] = tested on: bromegrass, downy (downy bromegrass, Bromus tectorum)
# Text: as §1, §2
# [10] = tested on: speedwell (bird's-eye speedwell, Veronica persica)
# Text: as §1, §2
# [11] = tested on: windgrass (Apera spica-venti)
# Text: as §1, §2
# [12] = Postemergence, 31 g ai/ha, scale 0 to 100 (0 no effect, 100 complete control)
# [13] = Postemergence, 125 g ai/ha, visual rating on scale 0 (no effect) to 100 (complete control), 14 to 21 d
# [14] = Postemergence, 250 g ai/ha, scale 0 to 100 (0 no effect, 100 complete control)
# [15] = Preemergence, 62 g ai/ha, scale 0 to 100 (0 no effect, 100 complete control)
# [16] = Preemergence, 125 g ai/ha, scale 0 to 100 (0 no effect, 100 complete control)
# [17] = Preemergence, 250 g ai/ha, scale 0 to 100 (0 no effect, 100 complete control)
# [18] = postemergence, 62 g ai/ha, scale 0 to 100, 0 no effect, 100 complete control
compound,measurement,setting,value
"Cc1ccc2sc(C)c(-c3c(O)c(C)nn(C)c3=O)c2c1 [Compound 1, 4-(2,5-dimethylbenzo[b]thien-3-yl)-5-hydroxy-2,6-dimethyl-3(2H)-pyridazinone]",Kochia plant response rating,kochia (Kochia scoparia); [12],70
same,"Plant response rating, Kochia",kochia (Kochia scoparia); [13],95
same,"Plant response rating, Kochia",kochia (Kochia scoparia); [14],100
same,"Plant response rating (scale of 0 to 100), Kochia","kochia (Kochia scoparia); Preemergence, 31 g ai/ha",0
same,"Plant response rating, Kochia",kochia (Kochia scoparia); [15],0
same,"Plant response rating, Kochia",kochia (Kochia scoparia); [16],35
same,"Plant response rating, Kochia",kochia (Kochia scoparia); [17],75
same,"Plant response rating, Kochia",kochia (Kochia scoparia); [18],85
same,"Wheat, Winter plant response rating",[1]; [12],0
same,"Plant response rating, Wheat, Winter",[1]; [13],0
same,"Plant response rating, Wheat, Winter",[1]; [14],5
same,"Plant response rating (scale of 0 to 100), Wheat, Winter","[1]; Preemergence, 31 g ai/ha",0
same,"Plant response rating, Wheat, Winter",[1]; [15],0
same,"Plant response rating, Wheat, Winter",[1]; [16],5
same,"Plant response rating, Wheat, Winter",[1]; [17],5
same,"Plant response rating, Wheat, Winter",[1]; [18],0
same,"Plant response rating, Barley, Winter",[2]; [12],5
same,"Plant response rating, Barley, Winter",[2]; [13],5
same,"Plant response rating, Barley, Winter",[2]; [14],10
same,"Plant response rating (scale of 0 to 100), Barley, Winter","[2]; Preemergence, 31 g ai/ha",0
same,"Plant response rating, Barley, Winter",[2]; [15],0
same,"Plant response rating, Barley, Winter",[2]; [16],0
same,"Barley, Winter plant response rating",[2]; [17],0
same,"Plant response rating, Barley, Winter",[2]; [18],5
same,Lambsquarters plant response rating,[3]; [12],75
same,"Plant response rating, Lambsquarters",[3]; [13],90
same,"Plant response rating, Lambsquarters",[3]; [14],100
same,"Plant response rating (scale of 0 to 100), Lambsquarters","[3]; Preemergence, 31 g ai/ha",20
same,"Plant response rating, Lambsquarters",[3]; [15],100
same,"Plant response rating, Lambsquarters",[3]; [16],100
same,"Plant response rating, Lambsquarters",[3]; [17],100
same,"Plant response rating, Lambsquarters",[3]; [18],90
same,Chickweed plant response rating,[4]; [12],80
same,"Plant response rating, Chickweed",[4]; [13],90
same,"Plant response rating, Chickweed",[4]; [14],100
same,"Plant response rating (scale of 0 to 100), Chickweed","[4]; Preemergence, 31 g ai/ha",100
same,"Plant response rating, Chickweed",[4]; [15],90
same,"Plant response rating, Chickweed",[4]; [16],100
same,"Plant response rating, Chickweed",[4]; [17],100
same,"Plant response rating, Chickweed",[4]; [18],80
same,"Mustard, Wild plant response rating",[5]; [12],25
same,"Plant response rating, Mustard, Wild",[5]; [13],40
same,"Plant response rating, Mustard, Wild",[5]; [14],65
same,"Plant response rating (scale of 0 to 100), Mustard, Wild","[5]; Preemergence, 31 g ai/ha",0
same,"Plant response rating, Mustard, Wild",[5]; [15],0
same,"Plant response rating, Mustard, Wild",[5]; [16],10
same,"Plant response rating, Mustard, Wild",[5]; [17],25
same,"Plant response rating, Mustard, Wild",[5]; [18],30
same,Field Poppy plant response rating,[6]; [12],95
same,"Plant response rating, Field Poppy",[6]; [13],100
same,"Plant response rating, Field Poppy",[6]; [14],95
same,"Plant response rating (scale of 0 to 100), Field Poppy","[6]; Preemergence, 31 g ai/ha",95
same,"Plant response rating, Field Poppy",[6]; [15],95
same,"Plant response rating, Field Poppy",[6]; [16],95
same,"Plant response rating, Field Poppy",[6]; [17],95
same,"Plant response rating, Field Poppy",[6]; [18],95
same,Deadnettle plant response rating,[7]; [12],35
same,"Plant response rating, Deadnettle",[7]; [13],35
same,"Plant response rating, Deadnettle",[7]; [14],70
same,"Plant response rating (scale of 0 to 100), Deadnettle","[7]; Preemergence, 31 g ai/ha",0
same,"Plant response rating, Deadnettle",[7]; [15],0
same,"Plant response rating, Deadnettle",[7]; [16],0
same,"Plant response rating, Deadnettle",[7]; [17],60
same,"Plant response rating, Deadnettle",[7]; [18],35
same,Galium plant response rating,[8]; [12],80
same,"Plant response rating, Galium",[8]; [13],95
same,"Plant response rating, Galium",[8]; [14],100
same,"Plant response rating (scale of 0 to 100), Galium","[8]; Preemergence, 31 g ai/ha",75
same,"Plant response rating, Galium",[8]; [15],95
same,"Plant response rating, Galium",[8]; [16],100
same,"Plant response rating, Galium",[8]; [17],100
same,"Plant response rating, Galium",[8]; [18],90
same,"Bromegrass, Downy plant response rating",[9]; [12],0
same,"Plant response rating, Bromegrass, Downy",[9]; [13],10
same,"Plant response rating, Bromegrass, Downy",[9]; [14],20
same,"Plant response rating (scale of 0 to 100), Bromegrass, Downy","[9]; Preemergence, 31 g ai/ha",20
same,"Plant response rating, Bromegrass, Downy",[9]; [15],25
same,"Plant response rating, Bromegrass, Downy",[9]; [16],70
same,"Plant response rating, Bromegrass, Downy",[9]; [17],70
same,"Plant response rating, Bromegrass, Downy",[9]; [18],10
same,Speedwell plant response rating,[10]; [12],25
same,"Plant response rating, Speedwell",[10]; [13],60
same,"Plant response rating, Speedwell",[10]; [14],70
same,"Plant response rating (scale of 0 to 100), Speedwell","[10]; Preemergence, 31 g ai/ha",70
same,"Plant response rating, Speedwell",[10]; [15],50
same,"Plant response rating, Speedwell",[10]; [17],95
same,"Plant response rating, Speedwell",[10]; [18],55
same,Windgrass plant response rating,[11]; [12],10
same,"Plant response rating, Windgrass",[11]; [13],50
same,"Plant response rating, Windgrass",[11]; [14],70
same,"Plant response rating (scale of 0 to 100), Windgrass","[11]; Preemergence, 31 g ai/ha",15
same,"Plant response rating, Windgrass",[11]; [15],60
same,"Plant response rating, Windgrass",[11]; [16],85
same,"Plant response rating, Windgrass",[11]; [17],100
same,"Plant response rating, Windgrass",[11]; [18],25
